What was measured:
FcRn = experiment: KD [nM]
Description: Errors are standard errors from fitting using FortéBio data analysis software 9.1. Fitting quality is characterized by R^2. Data is derived from BLI sensorgrams represented in FIG. 22 and FIG. 23.

[1] = tested on: HER2 positive (SKBR-3, HCC-1954) and HER2 negative (MDA-MB-468) cells; experiment: Cellular binding analysis by flow cytometry; format: cell-based, human; conditions: 100 nM, 60 min, 4° C.
Protocol: Relative order of fluorescence intensity of distinct variants on HER2 positive cells correspond to their HER2 binding affinity. Cells were incubated with 100 nM of Fcab/antibody for 60 min at 4° C., washed twice with PBS-1% BSA, incubated for 30 min with 500 nM of AF488-labeled detection antibody (Jackson ImmunoResearch) at 4° C. in darkness, washed twice with PBS-1% BSA, and finally fluorescence intensity was measured applying an Attune NxT flow cytometer (Invitrogen™).

Kd (FcRn) [nM]	Substance	cellular binding to HCC-1954 cells (in words) [1]
524 ± 13	huFc: native human Fc-based negative control [listing 1 of 2 here]	
	huFc: native human Fc-based negative control [listing 2 of 2 here]	binds only slightly

Reference: patent US20250281633A1, “HER2 TARGETING FC ANTIGEN BINDING FRAGMENT-DRUG CONJUGATES” (MERCK PATENT GMBH, priority 2021, published 2025)
